From patent US20250213516A1, “Prophylactic Methods For Treating ALS” (BioJiva LLC, priority 2022, published 2025)
Entries after “also recorded” stand apart in the source; their conditions may differ.

Columns and labels:
[1] = test system: patients in the accelerated stage of ALS; test: Clinical study, ALSFRS-R scoring of patients in the accelerated stage of ALS; assay type: in vivo, human; settings: 9 g/day ethyl ester vs placebo, 24 weeks, FIG. 2
Description: As used herein, the term “accelerated stage of ALS” refers to patients whose diseases progression has evidenced a more substantial loss of muscular functionality. For the purposes of this application, such is identified as having a natural history score of 37 or less.
In this example, the same 41 patients diagnosed with ALS used in Comparative Example 1 were used. […] Each cohort received three 1 gram pills t.i.d. at breakfast, lunch and dinner for a total of 9 pills.
After 24 weeks, each patient in each cohort were retested using the ALSFRS-R scoring test. The scores were then averaged for each cohort and the results are found in FIG. 2.

[2] = test system: patients in the incipient stage of ALS; test: Clinical study, ALSFRS-R scoring of patients in the incipient stage of ALS; assay type: in vivo, human; settings: for patients showing a better rate of decline (cut-off −11 change from baseline in ALSFRS-R): incipient stage, scored at 48 weeks
Description: This rating scale evaluated 12 different components on a 0 (worse) to 4 (best) scale where the components are speech, salivation, swallowing, handwriting, […], food handling, dressing and hygiene, turning in bed, […], climbing stairs, dyspnea, orthopnea, and respiratory insufficiency. As used herein, patients diagnosed with ALS are first evaluated to determine their natural history which measures the extent of loss of muscular functional due to the disease prior to initiation of therapy.
In this example, 41 patients diagnosed with ALS were tested to ascertain their natural history. Of these 41 patients, 23 scored above 38 points in the ALSFRS-R scoring test and were assigned as having incipient ALS. […] Each cohort received three 1 gram pills t.i.d. (“.three times a day”) at breakfast, lunch and dinner for a total of 9 pills.
After 24 weeks, each patient in each cohort were retested using the ALSFRS-R scoring test. The scores were then averaged for each cohort and the results are found in FIG. 1.
Each cohort received three 1 gram pills t.i.d. (“.three times a day”) at breakfast, lunch and dinner for a total of 9 pills.
After 48 weeks, each patient in each cohort were retested using the ALSFRS-R scoring test. The scores were then averaged.

[3] = test system: inflammation model; test: Inflammation model
[4] = average diet, about 14 grams linoleic acid per day; cited from earlier work

SMILES: [2H]C([2H])(/C=C\CCCCC)/C=C\CCCCCCCC(=O)OCC
- loss of muscular functionality (ALSFRS-R, cohort average) [1]: substantially less loss of muscular functionality
- change in ALSFRS-R scores (loss of functionality), cohort average ([2]; incipient stage ALS, about 9 g/day ethyl ester (8.64 g acid) vs placebo, 24 weeks, FIG. 1): do not evidence a significant change; also recorded: minimal loss of functionality

SMILES: [2H]C([2H])(/C=C\CCCCC)/C=C\C([2H])([2H])/C=C\C([2H])([2H])/C=C\CCCC(=O)O [7,7,10,10,13,13-D6-arachidonic acid]
- activity relative to 13,13-D2-arachidonic acid [3]: a little more than twice as active

SMILES: [2H]C([2H])(/C=C\CCCCC)/C=C\CCCCCCCC(=O)O [11,11-D2-linoleic acid]
- patients showing a better rate of decline (cut-off −11 change from baseline in ALSFRS-R) ([2]; placebo for 24 weeks, then 8.64 g/day for 24 weeks): 40%
- patients showing a better rate of decline (cut-off −11 change from baseline in ALSFRS-R) ([2]; treated with 8.64 g/day for 48 weeks): 70%

SMILES: CCCCC/C=C\C/C=C\CCCCCCCC(=O)O [linoleic acid]
- portion of linoleic acid consumed hepatically converted to arachidonic acid [4]: about 10%
